Laboratory results as given in patent publication US20140005163A1 (NOVARTIS AG, priority 2010, published 2014).

Columns and labels:
mTOR = biological target: T1, mTOR (Homo sapiens, UniProt P42345); test: Biochemical assay for m-TOR by TR-FRET; settings: 8 μM ATP, 400 nM GFP-4EBP1, 0.5 nM mTOR
T1 construct: purchased Invitrogen Corporation (Carlsbad/CA, USA) PV4753
Procedure: Biochemical Assay for m-TOR by TR-FRET.
Assay components are purchased from Invitrogen Corporation (Carlsbad/CA, USA): GFP-4EBP1 (Cat. No. PV4759), Tb3+-α-p4EBP1 [pThr46] Antibody (Cat. No. PV4757), proprietary TR-FRET dilution buffer (Cat. No. PV3574), mTOR protein (Cat. No. PV4753).
Then 5 μL of ATP (8 μM final concentration) and GFP-4EBP1 (400 nM final concentration) with 5 μL mTOR proteins (0.5 nM final concentration) are incubated at rt. The standard reaction buffer for the TR-FRET mTOR assay contained 50 mM HEPES pH 7.5, 10 mM MnCl2, 50 mM NaCl, 1 mM EGTA, 1 mM DTT. Reactions were stopped with 10 μL of a mixture of EDTA containing the Tb3+-α-p4EBP1-[pT46] detection Ab (0.5 nM) in TR-FRET dilution buffer (proprietary to IVG). Plates are read 15 mins later in a Synergy2 reader using an integration time of 0.2 seconds and a delay of 0.1 seconds. […] A standard compound is used as a reference compound and included in all assay plates in the form of 16 dilution points in duplicate.

[1] = system: PKB Ser473 phosphorylation in Rat1-myr-HA-p110 beta cells; test: Reverse protein array assay, PKB Ser473 phosphorylation in Rat1-myr-p110 beta cells; assay type: cell-based; settings: 0.5 h, pAkt Ser473, 30 minutes incubation, read-out: p-PKB IC50
Procedure: (§1) The Rat1-myr-HA-p110 alpha, beta and delta cells were trypsinized and counted with a CASY TT cell counter (Schärfe System GmbH, Reutlingen Germany). […] The plates were incubated at 37° C. and 5% CO2 under humidified condition for at least 20 h. Compound of formula I working solutions were prepared freshly as serial 8 step dilutions (vol/vol) in DMSO on the day of the experiment. […] The final DMSO concentration was kept constant at 0.2%. cell culture medium containing 0.2% DMSO was used as vehicle treatment control. Post incubation, the cells were treated with the serial compound dilution. 50 μl of the compound medium mixture was added to the wells containing cells and 150 μl DMEM medium and incubated for 30 minutes (37° C., 5% CO2). After 30 minutes of incubation, the medium mixture was quickly removed by aspiration. […] 50 μl of the described lysis buffer mix was added to each well, followed by 10 minutes of incubation on ice.
(§2) The samples were spotted onto ZeptoMARKt PWG protein microarray chips (Zeptosens, Witterswil, Switzerland) with the piezoelectric microdispense-based, non-contact Nano-Plotter 2.1 (GeSiM, Grosserkmannsdorf, Germany). Each sample was spotted at 4 different sample concentrations (d1=100%, d2=75%, d3=50%, d4=25%) by diluting the cell lysate with the corresponding volume of lysis buffer mix. After spotting the ZeptoMARK® protein microarrays, the chips are incubated for 1 hour at 37° C. […] After 20 minutes of blocking the chips are extensively rinsed with deionized water (Milli-Q quality, 18MΩ×cm) and dried in a nitrogen air flow.
(§3) After incubation, the arrays were washed twice with 200 μl CAB1 buffer. […] The fluorescence signal was assessed with exposure times of 1, 3, 5 and 10 seconds, depending on the intensity of the signal. The resulting four images taken per array are stored as 16-bit TIF files.
(§4) The fluorescence images for each array were analyzed with the ZeptoVIEW Pro 2.0 software (Zeptosens, Witterswil, Switzerland) and the relative fluorescence intensity for each signal was calculated.

[2] = system: PKB Ser473 phosphorylation in Rat1-myr-HA-p110 delta cells; test: Reverse protein array assay, PKB Ser473 phosphorylation in Rat1-myr-p110 delta cells; assay type: cell-based; settings: read-out: p-PKB IC50
Procedure: as §1, §2, §3, §4

[3] = system: S6 Ribosomal Protein phosphorylation Ser235/236 in TSC1 null mouse embryo fibroblast (MEF) cells; test: Reverse protein array assay, S6 Ribosomal Protein phosphorylation Ser235/236 in TSC1 null MEF cells; assay type: cell-based; settings: 1 h, pS6 ribosomal protein Ser235/236, 60 minutes incubation, read-out: p-S6 IC50
Procedure: as §1, with “TSC1−/−” for “Rat1-myr-HA-p110 alpha, beta and delta”, “(Schirfe” for “(Schärfe”, “Working” for “Compound of formula I working”, “0.02%.” for “0.2%.”, “0.02%” for “0.2%”, “60” for “30”
The spotting of the chips follows the previous described method.

[4] = system: PKB Ser473 phosphorylation in Rat1-myr-HA-p110 alpha cells; test: Reverse protein array assay, PKB Ser473 phosphorylation in Rat1-myr-p110 alpha cells; assay type: cell-based; settings: 0.5 h, pAkt Ser473, 30 minutes compound incubation, read-out: p-PKB IC50
Procedure: as §1, §2, §3, §4

PI3K alpha = biological target: T2, PI3K alpha (Homo sapiens, UniProt P42336); test: PI3K alpha kinase assay (Kinase-Glo luminescence); assay type: biochemical
T2 construct: p85(iSH2) fusion partner (see partner chain) (N); His tag (C); made in house; host or cells: baculovirus; Tn5 (Trichoplusia ni) or TiniPro insect cells
T2 sequence (P42336 with tags, fused parts or gaps limits assumed): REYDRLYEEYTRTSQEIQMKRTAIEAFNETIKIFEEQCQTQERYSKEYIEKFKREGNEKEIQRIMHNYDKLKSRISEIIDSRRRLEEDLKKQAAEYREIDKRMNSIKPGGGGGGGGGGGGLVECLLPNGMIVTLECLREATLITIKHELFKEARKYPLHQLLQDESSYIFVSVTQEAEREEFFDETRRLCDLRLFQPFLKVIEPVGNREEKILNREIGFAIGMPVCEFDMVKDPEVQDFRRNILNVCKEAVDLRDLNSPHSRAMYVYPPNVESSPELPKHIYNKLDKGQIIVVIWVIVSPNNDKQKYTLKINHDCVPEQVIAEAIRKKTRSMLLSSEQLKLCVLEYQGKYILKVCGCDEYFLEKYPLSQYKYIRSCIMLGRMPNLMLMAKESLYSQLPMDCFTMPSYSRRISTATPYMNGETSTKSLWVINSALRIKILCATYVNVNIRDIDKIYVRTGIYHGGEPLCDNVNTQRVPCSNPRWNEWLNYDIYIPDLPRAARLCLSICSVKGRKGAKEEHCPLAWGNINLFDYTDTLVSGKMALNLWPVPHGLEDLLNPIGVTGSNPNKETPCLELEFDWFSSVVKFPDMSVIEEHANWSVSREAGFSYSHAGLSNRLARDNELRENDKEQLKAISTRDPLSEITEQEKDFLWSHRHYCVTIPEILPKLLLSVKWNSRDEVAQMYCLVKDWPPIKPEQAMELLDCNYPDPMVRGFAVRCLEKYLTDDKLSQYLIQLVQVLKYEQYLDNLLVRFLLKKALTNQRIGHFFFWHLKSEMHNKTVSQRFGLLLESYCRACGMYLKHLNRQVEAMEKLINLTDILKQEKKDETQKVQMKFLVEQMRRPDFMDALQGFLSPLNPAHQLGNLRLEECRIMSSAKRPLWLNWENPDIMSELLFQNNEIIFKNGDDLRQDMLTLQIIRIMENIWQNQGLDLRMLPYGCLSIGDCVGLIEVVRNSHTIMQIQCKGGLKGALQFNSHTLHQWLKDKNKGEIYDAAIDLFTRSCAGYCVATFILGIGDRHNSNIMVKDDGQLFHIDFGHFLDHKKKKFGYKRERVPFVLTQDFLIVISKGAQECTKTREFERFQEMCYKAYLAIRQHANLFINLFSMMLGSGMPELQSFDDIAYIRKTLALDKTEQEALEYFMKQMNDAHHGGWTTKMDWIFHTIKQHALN
Procedure: (§5) In a more preferred assay, the kinase reaction is performed in a final volume of 10 μL per well of a low volume non binding CORNING, 384 well black plate (Cat. No. #3676). The final concentrations of ATP and phosphatidyl inositol (PI) in the assay are 1 μM and 10 μg/mL respectively. The reaction is started by the addition of ATP.
(§6) The components of the assay are added per well as follows:
(§7) […] in 90% DMSO per well, in columns 1-20, 8 concentrations (1/3 and 1/3.33 serial dilution step) in single. • Low control: […] of 90% DMSO in half the wells of columns 23-24 (0.45% in final). • High control: […] of reference compound (e.g. compound of Example 7 in WO 2006/122806) in the other half of columns 23-24 (2.5 μM in final). • Standard: […] of reference compound as just mentioned diluted as the test compounds in columns 21-22 • 20 mL ‘buffer’ are prepared per assay: • 200 μL of 1M TRIS HCl pH7.5 (10 mM in final) • 60 μL of 1M MgCl2 (3 mM in final) • 500 μL of 2M NaCl (50 mM in final) • 100 μL of 10% CHAPS (0.05% in final) • 200 μL of 100 mM DTT (1 mM in final) • 18.94 mL of nanopure water • 10 mL ‘PI’ are prepared per assay: • 200 μL of 1 mg/ml L-alpha-Phosphatidylinositol (Liver Bovine, Avanti Polar Lipids Cat. No. 840042C MW=909.12) prepared in 3% OctylGlucoside (10 μg/ml in final) • 9.8 mL of ‘buffer’ • 10 mL ‘ATP’ are prepared per assay: • 6.7 μL of 3 mM stock of ATP giving a final concentration of 1 μM per well • 10 mL of ‘buffer’ • 2.5 mL of each PI3K construct are prepared per assay in ‘PI’ with the following final concentration: • 10 nM PI3K alfa EMV B1075 • 25 nM beta EMV BV949 • 10 nM delta EMV BV1060 • 150 nM gamma EMV BV950 • 5 μL of ‘PI/PI3K’ are added per well. • 5 μl ‘ATP’ are added per well to start the reaction. • The plates are then incubated at room temperature for 60 minutes (alfa, beta, delta) or 120 minutes (gamma). • The reaction is terminated by the addition of 10 μL Kinase-Glo (Promega Cat. No. #6714). • The assay plates are read after 10 minutes in Synergy 2 reader (BioTek, Vermont USA) with an integration time of 100 milliseconds and sensitivity set to 191. • Output: The High control is around 60'000 counts and the Low control is 30'000 or lower • This luminescence assay gives a useful Z′ ratio between 0.4 and 0.7
Two different constructs, BV 1052 and BV 1075, are used to generate the PI3 Kinase a proteins for compound screening.
(§8) IC50 is determined by a four parameter curve fitting routine that comes along with “excel fit”. […] Alternatively, IC50 values are calculated using idbsXLfit model 204, which is a 4 parameter logistic model.

PI3K delta = biological target: T3, PI3K delta (Homo sapiens, UniProt O00329); test: PI3K delta kinase assay (Kinase-Glo luminescence); assay type: biochemical
T3 construct: for the full-length p110-d subunit are generated and fused by overlapping PCR; p85(iSH2) fusion partner (see partner chain) (N); His tag (C); made in house; host or cells: baculovirus; Tn5 (Trichoplusia ni) or TiniPro insect cells
T3 sequence (O00329 with tags, fused parts or gaps limits assumed): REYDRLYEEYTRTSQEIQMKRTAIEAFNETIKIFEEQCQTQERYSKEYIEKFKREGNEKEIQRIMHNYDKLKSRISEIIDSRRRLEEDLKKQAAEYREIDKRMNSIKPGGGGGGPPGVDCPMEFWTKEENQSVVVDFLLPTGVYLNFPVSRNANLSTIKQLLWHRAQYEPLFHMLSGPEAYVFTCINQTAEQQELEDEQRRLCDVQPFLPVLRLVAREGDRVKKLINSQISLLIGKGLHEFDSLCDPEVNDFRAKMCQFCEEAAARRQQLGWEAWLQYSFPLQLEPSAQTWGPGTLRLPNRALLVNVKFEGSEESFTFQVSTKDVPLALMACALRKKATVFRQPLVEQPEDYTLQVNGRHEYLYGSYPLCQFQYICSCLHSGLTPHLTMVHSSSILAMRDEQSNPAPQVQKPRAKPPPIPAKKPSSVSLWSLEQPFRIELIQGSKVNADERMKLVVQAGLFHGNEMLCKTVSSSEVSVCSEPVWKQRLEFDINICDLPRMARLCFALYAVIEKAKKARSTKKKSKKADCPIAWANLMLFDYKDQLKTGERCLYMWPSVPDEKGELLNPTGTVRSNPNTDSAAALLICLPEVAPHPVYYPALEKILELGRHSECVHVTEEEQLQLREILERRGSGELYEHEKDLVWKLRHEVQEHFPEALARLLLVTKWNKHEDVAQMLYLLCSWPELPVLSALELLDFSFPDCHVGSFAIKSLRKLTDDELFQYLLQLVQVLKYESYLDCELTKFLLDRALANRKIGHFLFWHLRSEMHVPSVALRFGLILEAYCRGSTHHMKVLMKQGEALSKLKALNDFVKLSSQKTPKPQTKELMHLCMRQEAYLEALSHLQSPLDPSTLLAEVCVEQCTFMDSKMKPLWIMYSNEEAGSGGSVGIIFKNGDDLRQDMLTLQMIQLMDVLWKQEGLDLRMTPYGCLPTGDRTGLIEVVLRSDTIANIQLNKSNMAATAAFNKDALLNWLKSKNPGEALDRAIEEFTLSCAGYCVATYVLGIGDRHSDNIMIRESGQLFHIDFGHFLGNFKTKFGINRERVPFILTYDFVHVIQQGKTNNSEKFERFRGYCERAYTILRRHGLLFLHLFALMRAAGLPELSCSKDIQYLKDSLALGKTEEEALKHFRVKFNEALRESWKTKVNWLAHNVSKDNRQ
Procedure: as §5, §6, §7
PI3Kγ BV-1060 p85(iSH2)-Gly Linker-p110d(Full-Length)-C-Term his Tag
as §8

T1 sequence (P42345 1360-2549 limits assumed): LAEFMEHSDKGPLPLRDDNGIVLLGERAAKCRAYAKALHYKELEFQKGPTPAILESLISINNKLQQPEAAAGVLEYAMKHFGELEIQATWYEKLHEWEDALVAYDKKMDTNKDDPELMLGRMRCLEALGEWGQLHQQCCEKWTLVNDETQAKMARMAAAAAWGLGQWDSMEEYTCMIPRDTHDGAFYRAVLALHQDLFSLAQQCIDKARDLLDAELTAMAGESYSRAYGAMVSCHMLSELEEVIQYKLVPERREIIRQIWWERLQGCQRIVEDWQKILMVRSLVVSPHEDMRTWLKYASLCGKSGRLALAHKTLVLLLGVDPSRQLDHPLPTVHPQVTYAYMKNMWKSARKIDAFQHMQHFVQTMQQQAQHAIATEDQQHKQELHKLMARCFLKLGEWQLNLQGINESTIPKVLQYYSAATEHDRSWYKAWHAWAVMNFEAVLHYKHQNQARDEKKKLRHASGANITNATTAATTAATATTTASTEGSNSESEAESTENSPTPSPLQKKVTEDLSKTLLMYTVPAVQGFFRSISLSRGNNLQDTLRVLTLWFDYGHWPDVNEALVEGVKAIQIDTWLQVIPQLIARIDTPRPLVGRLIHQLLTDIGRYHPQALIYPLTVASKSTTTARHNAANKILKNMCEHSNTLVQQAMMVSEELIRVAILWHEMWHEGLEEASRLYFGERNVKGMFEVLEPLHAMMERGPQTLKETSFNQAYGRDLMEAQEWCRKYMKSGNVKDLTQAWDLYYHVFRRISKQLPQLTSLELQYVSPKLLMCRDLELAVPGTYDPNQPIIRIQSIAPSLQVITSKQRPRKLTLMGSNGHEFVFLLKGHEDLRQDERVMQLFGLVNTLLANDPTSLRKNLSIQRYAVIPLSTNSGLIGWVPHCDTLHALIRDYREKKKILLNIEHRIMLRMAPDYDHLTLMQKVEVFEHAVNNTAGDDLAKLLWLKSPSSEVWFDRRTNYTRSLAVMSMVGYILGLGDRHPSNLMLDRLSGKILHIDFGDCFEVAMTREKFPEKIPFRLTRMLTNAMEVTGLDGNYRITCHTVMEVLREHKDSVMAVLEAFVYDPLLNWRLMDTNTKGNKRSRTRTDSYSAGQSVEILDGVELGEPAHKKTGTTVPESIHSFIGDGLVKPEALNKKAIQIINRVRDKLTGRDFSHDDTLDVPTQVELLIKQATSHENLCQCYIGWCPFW

| Structure (SMILES) | IC50 (mTOR) | IC50 [1] | IC50 [2] | IC50 [3] | IC50 [4] | IC50 (PI3K alpha) | IC50 (PI3K delta) |
| --- | --- | --- | --- | --- | --- | --- | --- |
| COc1ccc(-c2ccc3ncc4c(c3c2)n(-c2cn(C)nc2Cl)c(=O)n4C)cc1OC [1.10—] | 0.014 µM | – | – | – | – | – | – |
| COc1ccc(-c2ccc3ncc4c(c3c2)n(-c2cnn(C)c2C)c(=O)n4C)cc1OC [Example 1.1, 8-(3,4-Dimethoxy-phenyl)-1-(1,5-dimethyl-1H-pyrazol-4-yl)-3-methyl-1,3-dihydro-imidazo[4,5-c]quinolin-2-one] | – | 0.066 µM | 0.081 µM | 0.004 µM | 0.022 µM | – | – |
| CCn1nccc1-n1c(=O)n(C)c2cnc3ccc(-c4ccc(N(C)C)nc4)cc3c21 [Example 4.8, 8-(6-Dimethylamino-pyridin-3-yl)-1-(2-ethyl-2H-pyrazol-3-yl)-3-methyl-1,3-dihydro-imidazo[4,5-c]quinolin-2-one] | 0.251 µM | 0.154 µM | 0.278 µM | – | 0.158 µM | – | – |
| Cc1nn(C)cc1-n1c(=O)n(C)c2cnc3ccc(-c4ccc(-n5ccnc5C)nc4)cc3c21 [Example 78, 1-(1,3-Dimethyl-1H-pyrazol-4-yl)-3-methyl-8-[6-(2-methyl-imidazol-1-yl)-pyridin-3-yl]-1,3-dihydro-imidazo[4,5-c]quinolin-2-one] | – | 0.386 µM | 0.959 µM | – | 0.264 µM | – | – |
| CCOc1cc(-c2ccc3ncc4c(c3c2)n(-c2cn(C)nc2C)c(=O)n4C)cnc1OC [Example 94, 1-(1,3-Dimethyl-1H-pyrazol-4-yl)-8-(5-ethoxy-6-methoxy-pyridin-3-yl)-3-methyl-1,3-dihydro-imidazo[4,5-c]quinolin-2-one] | – | 0.011 µM | 0.009 µM | – | < 0.005 µM | – | – |
| Cc1nn(CC(=O)N2CCN(C)CC2)cc1-n1c(=O)n(C)c2cnc3ccc(-c4ccccc4)cc3c21 [Example 134, 3-Methyl-1-{3-methyl-1-[2-(4-methyl-piperazin-1-yl)-2-oxo-ethyl]-1H-pyrazol-4-yl}-8-phenyl-1,3-dihydro-imidazo[4,5-c]quinolin-2-one] | 0.1 µM | – | – | – | – | 0.543 µM | – |
| COc1cc(-c2ccc3ncc4c(c3c2)n(-c2cn(C)nc2C)c(=O)n4C)cnc1OC [Example 204, 8-(5,6-Dimethoxy-pyridin-3-yl)-1-(1,3-dimethyl-1H-pyrazol-4-yl)-3-methyl-1,3-dihydro-imidazo[4,5-c]quinolin-2-one] | – | 0.012 µM | 0.009 µM | < 0.0005 µM | 0.008 µM | – | – |
| CO[C@H]1CCN(c2ccc(-c3ccc4ncc5c(c4c3)n(-c3cn(C)nc3C)c(=O)n5C)cn2)C1 [Example 213.2, 1-(1,3-Dimethyl-1H-pyrazol-4-yl)-8-[6-((S)-3-methoxy-pyrrolidin-1-yl)-pyridin-3-yl]-3-methyl-1,3-dihydro-imidazo[4,5-c]quinolin-2-one] | 0.123 µM | 0.119 µM | – | – | 0.058 µM | 0.22 µM | 0.211 µM |
| Cc1nn(C)cc1-n1c(=O)n(C)c2cnc3ccc(-c4ccc(NC5CCOCC5)nc4)cc3c21 [Example 214, 1-(1,3-Dimethyl-1H-pyrazol-4-yl)-3-methyl-8-[6-(tetrahydro-pyran-4-ylamino)-pyridin-3-yl]-1,3-dihydro-imidazo[4,5-c]quinolin-2-one] | – | 0.608 µM | – | 0.046 µM | 0.285 µM | – | – |
| Cc1nn(CC(=O)N2CCN(C)CC2)cc1-n1c(=O)n(C)c2cnc3ccc(-c4cnc(N5CCCC5)nc4)cc3c21 [Example 247.5, 3-Methyl-1-{3-methyl-1-[2-(4-methyl-piperazin-1-yl)-2-oxo-ethyl]-1H-pyrazol-4-yl}-8-(2-pyrrolidin-1-yl-pyrimidin-5-yl)-1,3-dihydro-imidazo[4,5-c]quinolin-2-one] | 0.099 µM | – | – | 0.201 µM | 0.828 µM | 0.971 µM | – |
